Experimental data from PMC11077815, “Synthesis and antitumor activity of dolutegravir derivatives bearing 1,2,3-triazole moieties” (BMC Chemistry, 2024).

Key:
[1] = system: HRM (Human Renal Mesangial) cell line; experiment: CCK8 cell viability assay, HRM normal cells (toxicity control); assay type: cell-based; settings: HRM normal human cells, 48 h, CCK8, mean ± SE
Protocol: Based on these preliminary results, compounds 9c, 9e, 9f, 9i, 9k, 9 L, 9p, 9q, 9t, 9u, 9v, 9w, 10c, 10e which were effective to most of the cell lines were chosen for the measurement of the half-maximal inhibitory concentration (IC50). […] HRM (Human Renal Mesangial) cell line was used as a control to study the toxicity of these compounds against normal human cells.
(§1) CCK8 assay was used to measure cell viability. Cells with a density of 1 × 10^4 cells/well were seeded on the 96-well plates. After adhesion, cells were treated with different diluted compounds or vehicle control DMSO and continue cultured for 48 h. Then, CCK8 reagent was added for one hour incubation at 37 °C with 5% of CO2. Absorbance was measured using a microplate spectrophotometer (Thermo) at 450 nm. The ratio of cell viability of control was taken as 100%. […] Then IC50 of the compounds were investigated using the prism statistical software.

PC-9 = experiment: CCK8 cell viability assay, PC-9; assay type: cell-based, Human; settings: for Cell viability (100%): PC9, 20 µM, 48 h, CCK8, control = 100%; for IC50: PC9, 48 h, CCK8, mean ± SE
Protocol: as §1, with “At first, CCK8 assay was carried out to evaluate the anti-proliferative activity of dolutegravir-1,2,3-triazole derivatives against different cancer cell lines. The results of cell viability of three lung cancer cell lines A549, PC-9 and H460 in the presence of compounds 9 and 10 are summarized in Table 2. Cells were treated with different compounds at the concentration of 20 µM for 48 h. […] Human lung cancer cell lines A549, PC-9 and H460 were all obtained from ATCC. Cells were cultured in DMEM or RPMI 1640 medium containing 10% FBS and 1% penicillin/streptomycin at 37 °C with a 5% CO2-humidified atmosphere. CCK8 assay” for “CCK8 assay”

H460 = experiment: CCK8 cell viability assay, H460; assay type: cell-based, Human; settings: for Cell viability (100%): H460, 20 µM, 48 h, CCK8, control = 100%; for IC50: H460, 48 h, CCK8, mean ± SE
Protocol: as §1, with “At first, CCK8 assay was carried out to evaluate the anti-proliferative activity of dolutegravir-1,2,3-triazole derivatives against different cancer cell lines. The results of cell viability of three lung cancer cell lines A549, PC-9 and H460 in the presence of compounds 9 and 10 are summarized in Table 2. Cells were treated with different compounds at the concentration of 20 µM for 48 h. […] Human lung cancer cell lines A549, PC-9 and H460 were all obtained from ATCC. Cells were cultured in DMEM or RPMI 1640 medium containing 10% FBS and 1% penicillin/streptomycin at 37 °C with a 5% CO2-humidified atmosphere. CCK8 assay” for “CCK8 assay”

A549 = experiment: CCK8 cell viability assay, A549; assay type: cell-based, Human; settings: for Cell viability (100%): A549, 20 µM, 48 h, CCK8, control = 100%; for IC50: A549, 48 h, CCK8, mean ± SE
Protocol: as §1, with “At first, CCK8 assay was carried out to evaluate the anti-proliferative activity of dolutegravir-1,2,3-triazole derivatives against different cancer cell lines. The results of cell viability of three lung cancer cell lines A549, PC-9 and H460 in the presence of compounds 9 and 10 are summarized in Table 2. Cells were treated with different compounds at the concentration of 20 µM for 48 h. […] Human lung cancer cell lines A549, PC-9 and H460 were all obtained from ATCC. Cells were cultured in DMEM or RPMI 1640 medium containing 10% FBS and 1% penicillin/streptomycin at 37 °C with a 5% CO2-humidified atmosphere. CCK8 assay” for “CCK8 assay”

| IC50 (PC-9) [µM] | IC50 (H460) [µM] | IC50 (A549) [µM] | Structure (SMILES) | IC50 [1] [µM] | Cell viability (100%) (PC-9) [%] | Cell viability (100%) (H460) [%] | Cell viability (100%) (A549) [%] |
| --- | --- | --- | --- | --- | --- | --- | --- |
| 9.2 ± 0.65 | 25.5 ± 0.43 | 44.3 ± 1.21 | COc1cccc(-n2cc(-c3cccc(NC(=O)c4cn5c(c(OC)c4=O)C(=O)N4[C@H](C)CCO[C@H]4C5)c3)nn2)c1 [Compound 9 L] | 43.3 ± 3.27 | 47.77 | 20.32 | 73.36 |
| – | – | – | COc1c2n(cc(C(=O)Nc3cccc(-c4cn(-c5ccc(F)cc5)nn4)c3)c1=O)C[C@@H]1OCC[C@@H](C)N1C2=O [Compound 9 g] | – | 88.64 | 97.85 | 91.65 |
| – | – | – | CCOc1ccc(-n2cc(-c3cccc(NC(=O)c4cn5c(c(OC)c4=O)C(=O)N4[C@H](C)CCO[C@H]4C5)c3)nn2)cc1 [Compound 9 h] | – | 71.96 | 52.87 | 77.55 |
| – | – | – | CCc1ccc(-n2cc(-c3cccc(NC(=O)c4cn5c(c(OC)c4=O)C(=O)N4[C@H](C)CCO[C@H]4C5)c3)nn2)cc1 [Compound 9 m] | – | 63.65 | 62.63 | 65.08 |
| – | – | – | COc1c2n(cc(C(=O)Nc3cccc(-c4cn(-c5ccccc5F)nn4)c3)c1=O)C[C@@H]1OCC[C@@H](C)N1C2=O [Compound 9a] | – | 52.03 | 47.20 | 95.90 |
| – | – | – | COc1cc([N+](=O)[O-])ccc1-n1cc(-c2cccc(NC(=O)c3cn4c(c(OC)c3=O)C(=O)N3[C@H](C)CCO[C@H]3C4)c2)nn1 [Compound 9b] | – | 104.86 | 98.64 | 92.60 |
| 4.03 ± 0.59 | 11.4 ± 0.59 | 9.06 ± 0.88 | COc1c2n(cc(C(=O)Nc3cccc(-c4cn(-c5ccccc5C(F)(F)F)nn4)c3)c1=O)C[C@@H]1OCC[C@@H](C)N1C2=O [Compound 9c] | > 50 | 13.91 | 32.97 | 9.48 |
| – | – | – | COc1c2n(cc(C(=O)Nc3cccc(-c4cn(-c5ccc(C(F)(F)F)cc5)nn4)c3)c1=O)C[C@@H]1OCC[C@@H](C)N1C2=O [Compound 9d] | – | 105.15 | 69.71 | 82.37 |
| 4.67 ± 0.26 | 19.6 ± 0.32 | 27.8 ± 0.56 | COc1c2n(cc(C(=O)Nc3cccc(-c4cn(-c5cccc(C)c5)nn4)c3)c1=O)C[C@@H]1OCC[C@@H](C)N1C2=O [Compound 9f] | > 50 | 8.80 | 39.20 | 33.47 |
| 4.53 ± 0.31 | 8.24 ± 2.06 | 11.1 ± 1.07 | COc1c2n(cc(C(=O)Nc3cccc(-c4cn(-c5ccccc5OC(F)(F)F)nn4)c3)c1=O)C[C@@H]1OCC[C@@H](C)N1C2=O [Compound 9i] | > 50 | 18.95 | 8.52 | 17.41 |
| – | – | – | COc1ccc(-n2cc(-c3cccc(NC(=O)c4cn5c(c(OC)c4=O)C(=O)N4[C@H](C)CCO[C@H]4C5)c3)nn2)cc1OC [Compound 9j] | – | 85.93 | 92.89 | 87.42 |
| 9.87 ± 0.19 | 12.9 ± 0.8 | 20.7 ± 0.23 | CCc1ccccc1-n1cc(-c2cccc(NC(=O)c3cn4c(c(OC)c3=O)C(=O)N3[C@H](C)CCO[C@H]3C4)c2)nn1 [Compound 9k] | > 50 | 23.40 | 18.72 | 83.48 |
| – | – | – | COc1c2n(cc(C(=O)Nc3cccc(-c4cn(-c5ccc(C(C)(C)C)cc5)nn4)c3)c1=O)C[C@@H]1OCC[C@@H](C)N1C2=O [Compound 9n] | – | 59.44 | 24.58 | 67.60 |
| – | – | – | COc1c2n(cc(C(=O)Nc3cccc(-c4cn(-c5ccccc5)nn4)c3)c1=O)C[C@@H]1OCC[C@@H](C)N1C2=O [Compound 9o] | – | 94.56 | 87.72 | 78.59 |
| 6.78 ± 0.31 | 16.5 ± 0.57 | 13.6 ± 1.79 | COc1c2n(cc(C(=O)Nc3cccc(-c4cn(-c5cc(C(F)(F)F)ccc5C(F)(F)F)nn4)c3)c1=O)C[C@@H]1OCC[C@@H](C)N1C2=O [Compound 9q] | > 50 | 18.17 | 17.63 | 54.85 |
| – | – | – | COc1c2n(cc(C(=O)Nc3cccc(-c4cn(-c5cc(C(F)(F)F)cc(C(F)(F)F)c5)nn4)c3)c1=O)C[C@@H]1OCC[C@@H](C)N1C2=O [Compound 9r] | – | 98.55 | 117.07 | 90.73 |
| – | – | – | COc1c2n(cc(C(=O)Nc3cccc(-c4cn(-c5ccccc5C)nn4)c3)c1=O)C[C@@H]1OCC[C@@H](C)N1C2=O [Compound 9s] | – | 65.73 | 48.37 | 82.07 |
| 6.75 ± 1.43 | 14.2 ± 0.16 | 17.3 ± 0.73 | COc1ccccc1-n1cc(-c2cccc(NC(=O)c3cn4c(c(OC)c3=O)C(=O)N3[C@H](C)CCO[C@H]3C4)c2)nn1 [Compound 9t] | > 50 | 4.56 | 3.27 | 7.32 |
| 7.77 ± 0.37 | 37.3 ± 2.25 | > 50 | COc1c2n(cc(C(=O)Nc3cccc(-c4cn(-c5ccccc5Br)nn4)c3)c1=O)C[C@@H]1OCC[C@@H](C)N1C2=O [Compound 9u] | > 50 | 43.88 | 31.00 | 64.09 |
| 11.6 ± 0.48 | 16.2 ± 1.29 | > 50 | COc1c2n(cc(C(=O)Nc3cccc(-c4cn(-c5ccccc5Cl)nn4)c3)c1=O)C[C@@H]1OCC[C@@H](C)N1C2=O [Compound 9v] | > 50 | 47.42 | 38.13 | 54.06 |
| – | – | – | COc1ccc(-n2cc(-c3cccc(NC(=O)c4cn5c(c(OC)c4=O)C(=O)N4C(C)CCOC4C5)c3)nn2)cc1 (stereo not drawn) [Compound 9x] | – | 78.11 | 108.05 | 69.21 |
| – | – | – | COc1c2n(cc(C(=O)Nc3cccc(-c4cn(-c5ccc(C)cc5)nn4)c3)c1=O)C[C@@H]1OCC[C@@H](C)N1C2=O [Compound 9y] | – | 79.67 | 94.78 | 85.43 |
| – | – | – | COc1c2n(cc(C(=O)Nc3cccc(-c4cn(-c5c(C)cc(C)cc5C)nn4)c3)c1=O)C[C@@H]1OCC[C@@H](C)N1C2=O [Compound 9z] | – | 73.07 | 55.57 | 91.32 |
| – | – | – | COc1c2n(cc(C(=O)Nc3cccc(-c4cn(Cc5ccccc5C)nn4)c3)c1=O)CC1OCCC(C)N1C2=O (stereo not drawn) [Compound 10 g] | – | 54.61 | 35.98 | 71.58 |
| – | – | – | COc1c2n(cc(C(=O)Nc3cccc(-c4cn(Cc5ccccc5C(F)(F)F)nn4)c3)c1=O)CC1OCCC(C)N1C2=O (stereo not drawn) [Compound 10 h] | – | 66.77 | 28.10 | 77.72 |
| – | – | – | COc1c2n(cc(C(=O)Nc3cccc(-c4cn(Cc5cc(Br)cc(Br)c5)nn4)c3)c1=O)C[C@@H]1OCC[C@@H](C)N1C2=O [Compound 10a] | – | 103.57 | 82.32 | 87.40 |
| – | – | – | COc1c2n(cc(C(=O)Nc3cccc(-c4cn(Cc5ccccc5)nn4)c3)c1=O)C[C@@H]1OCC[C@@H](C)N1C2=O [Compound 10b] | – | 96.85 | 55.00 | 87.18 |
| – | – | – | COc1cccc(Cn2cc(-c3cccc(NC(=O)c4cn5c(c(OC)c4=O)C(=O)N4[C@H](C)CCO[C@H]4C5)c3)nn2)c1 [Compound 10d] | – | 83.17 | 77.21 | 89.00 |
| – | – | – | COc1c2n(cc(C(=O)Nc3cccc(-c4cn(Cc5ccccc5F)nn4)c3)c1=O)CC1OCCC(C)N1C2=O (stereo not drawn) [Compound 10f] | – | 61.10 | 32.43 | 82.22 |
